Experimental findings from ChEMBL document CHEMBL5038591, “Identification of a Novel TAR RNA-Binding Protein 2 Modulator with Potential Therapeutic Activity against Hepatocellular Carcinoma” (J Med Chem, 2021) are described below.

The subject of assay [1] is SK-HEP1. The assay can be described thus: Antiproliferative activity against human SK-HEP1 cells knockdown TRBP at 20 uM measured by crystal violet dye based colony formation assay. It counts as functional, cell-based.
The test system of assay [2] is MHCC97. In words: Antitumor activity in human MHCC97 cells xenografted in SCID mouse assessed as reduction in infiltration of inflammatory cells in left outer lobe of liver at 40 mg/kg, ip administered once every 3 days measured after 30 days by H and E staining based immunohistochemical analysis. Type of assay: functional, organism-based. Conditions: time 30.0 day. For orientation: In xenograft studies the graft and the host belong to different species.

For assay [3], the system named is MDA-MB-231. The assay can be described thus: Antiproliferative activity against human MDA-MB-231 cells incubated for 24 hrs by alamar blue assay. Conditions: MDA-MB-231, 24 h. Background: Alamar Blue is a resazurin reagent that responds to reducing activity.
Assay [4] has as its system SK-HEP1. The assay can be described thus: Effect on human SK-HEP1 cells assessed as increase in miR-146a-5p level by qRT-PCR analysis. Type of assay: functional, cell-based. In general terms: Real-time PCR tracks product formation cycle by cycle.
Assay [5] deals with MDA-MB-231. In words: Antiproliferative activity against human MDA-MB-231 cells at 25 uM incubated for 24 hrs by alamar blue assay. Type of assay: functional, cell-based.
Assay [6] concerns the target Transcription factor p65 (Homo sapiens) (UniProt Q04206). In words: Inhibition of p65 phosphorylation in human SK-HEP1 cells at 30 uM by Western blot analysis. Type of assay: cell-based.
Assay [7] concerns SK-HEP1. In words: Antiproliferative activity against human SK-HEP1 cells assessed as increase in miR-22-5p level at 20 uM by qRT-PCR analysis. Type of assay: functional, cell-based.
The test system of a further assay is Mus musculus. The assay can be described thus: Downregulation of UBE2S expression in mouse liver at 40 mg/kg measured after 30 days by immunohistochemical staining analysis. It counts as functional, organism-based. To be noted: time 30.0 day.
Assay [8] has as its system SK-HEP1. The assay can be described thus: Induction of cell cycle arrest in human SK-HEP1 cells assessed as G2 phase accumulation at 20 uM incubated for 24 hrs by propidium iodide staining based flow cytometry analysis (reference value: 24.12%). Type of assay: functional.
Assay [9] relates to MHCC97. The assay can be described thus: Antiproliferative activity against human MHCC97 cells at 25 uM incubated for 24 hrs by alamar blue assay. It counts as functional, cell-based.
The subject of assay [10] is SK-HEP1. The assay can be described thus: Effect on human SK-HEP1 cells assessed as decrease in miR-224-5p level at 10 to 50 uM by qRT-PCR analysis. Conditions: dose 10-50 µM. It counts as functional, cell-based.
For another assay, the system named is HepG2. The assay can be described thus: Antiproliferative activity against human HepG2 cells incubated for 24 hrs by alamar blue assay. To be noted: HepG2, 24 h.
Assay [11] concerns SK-HEP1. In words: Antiproliferative activity against human SK-HEP1 cells incubated for 24 hrs by alamar blue assay. Type of assay: functional, cell-based. To be noted: SK-HEP1, 24 h.
The next assay deals with Huh-7. In words: Antiproliferative activity against human Huh-7 cells at 25 uM incubated for 24 hrs by alamar blue assay. Type of assay: functional, cell-based.
Assay [12] deals with HeLa. The assay can be described thus: Inhibition of colony formation in human HeLa cells at 30 uM incubated for 14 days by crystal violet staining based assay. Type of assay: functional, cell-based. Conditions: time 14.0 day.
For assay [13], the system named is HeLa. In words: Antiproliferative activity against human HeLa cells at 25 uM incubated for 24 hrs by alamar blue assay. It counts as functional, cell-based.

pIC50: −log10 of the molar value. Calls of active or inactive are those of the source. No cut-off for these calls is given here.

Sequence of Transcription factor p65 (Homo sapiens) (Q04206 whole entry): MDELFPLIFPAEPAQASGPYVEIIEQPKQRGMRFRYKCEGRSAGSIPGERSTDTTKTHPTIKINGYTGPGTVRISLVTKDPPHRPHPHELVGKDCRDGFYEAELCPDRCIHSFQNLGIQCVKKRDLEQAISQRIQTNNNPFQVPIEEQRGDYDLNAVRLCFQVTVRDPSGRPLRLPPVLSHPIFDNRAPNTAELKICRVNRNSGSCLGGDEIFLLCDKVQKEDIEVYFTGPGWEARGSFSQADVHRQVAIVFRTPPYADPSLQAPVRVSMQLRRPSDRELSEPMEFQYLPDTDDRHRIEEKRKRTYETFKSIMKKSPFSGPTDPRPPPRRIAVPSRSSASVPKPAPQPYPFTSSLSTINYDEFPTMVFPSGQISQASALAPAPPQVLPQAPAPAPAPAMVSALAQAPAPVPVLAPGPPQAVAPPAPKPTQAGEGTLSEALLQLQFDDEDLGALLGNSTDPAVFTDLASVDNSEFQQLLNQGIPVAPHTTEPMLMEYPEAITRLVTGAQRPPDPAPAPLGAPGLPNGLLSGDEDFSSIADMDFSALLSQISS

By pIC50 is commonly meant the IC50 on a negative log10 scale, so that one unit is a factor of ten. Read a low pIC50 as a large IC50. Turning to `COc1cc2c(c(O)c1OC)-c1c(cc3c(c1OC)OCO3)C[C@H](C)[C@H](C)C2`, the result with SK-HEP1 [1], in the assay with MDA-MB-231 [5] and in the assay with SK-HEP1 [7] was inactive. For the same compound, the result in the assay on MHCC97 [2], in the assay on Mus musculus, with MHCC97 [9], in the assay on SK-HEP1 [10], with Huh-7 and in the assay with HeLa [13] was Active. For the same compound, the pIC50 in the assay on MDA-MB-231 [3] was 4.25; with HepG2, 4.56; with SK-HEP1 [11] it was 4.69. In addition, the Activity result was “Dose-Dependent Effect” with SK-HEP1 [4] and 19.68% in the assay with SK-HEP1 [8]. Further, the inhibition entry (in assay [6]; with HeLa [12]) was “Active” each time.
